Source: patent US8901118B2, “Compounds and methods for kinase modulation, and indications therefor” (Plexxikon Inc., priority 2010, dated 2014)
pIC50: −log10 of the molar value.

Legend:
[1] = molecular target: CYP3A4(BFC) (Homo sapiens, UniProt P08684); test: CYP3A4(BFC) inhibition; format: in vitro ADME; conditions: CYP3A4, substrate BFC; read-out: Cyp IC50 3A4(BFC)
Procedure, shortened: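 Inhibition of human CYP3A4 with the BFC substrate was measured by fluorescence loss of the metabolized product. Compounds at 100 mM in DMSO were diluted 1 μL into 82 μL acetonitrile, then 11 μL into 204 μL cofactor mix with NADPH regeneration solutions, and serially diluted 1:1 to 10 points. Plates were incubated 30 min at 37° C and read at 409 ex/460 em to obtain IC50.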

[2] = molecular target: CYP2C19 (Homo sapiens, UniProt P33261); test: CYP2C19 inhibition (fluorescent substrate CEC); format: in vitro ADME; conditions: read-out: Cyp IC50 2C19
CYP2C19, sequence (P33261 whole entry): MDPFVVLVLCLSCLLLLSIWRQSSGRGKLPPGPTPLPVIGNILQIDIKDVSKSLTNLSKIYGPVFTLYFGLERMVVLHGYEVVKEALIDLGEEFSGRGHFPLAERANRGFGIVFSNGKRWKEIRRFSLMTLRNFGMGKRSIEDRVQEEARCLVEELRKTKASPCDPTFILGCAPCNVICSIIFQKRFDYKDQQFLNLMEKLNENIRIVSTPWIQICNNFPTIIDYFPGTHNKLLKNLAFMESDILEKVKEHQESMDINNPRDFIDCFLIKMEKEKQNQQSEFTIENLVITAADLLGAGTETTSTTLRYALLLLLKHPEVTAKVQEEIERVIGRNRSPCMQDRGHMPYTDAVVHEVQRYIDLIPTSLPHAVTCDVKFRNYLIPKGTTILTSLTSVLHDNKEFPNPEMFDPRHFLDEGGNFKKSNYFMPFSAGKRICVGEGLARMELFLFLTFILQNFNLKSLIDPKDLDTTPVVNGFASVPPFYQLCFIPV
Procedure, shortened: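 Test compounds, 10-point 1:1 serial dilutions in NADPH-regenerating cofactor mix, were preincubated 10 min at 37° C before recombinant enzyme and fluorogenic substrate reactions at 37° C (CYP1A2 15 min; CYP2C9 45 min; CYP2C19, 2D6 30 min). Product fluorescence was read at 409 ex with 460 em (1A2, 2C19) or 530 em (2C9, 2D6), and IC50 fitted from signal versus concentration.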

[3] = molecular target: c-Kit kinase (Homo sapiens, UniProt P10721); test: c-Kit kinase biochemical activity assay (AlphaScreen, biotin-(E4Y)10 phosphorylation); conditions: 100 μM ATP; read-out: Biochemical Inhibition IC50 Kit
c-Kit kinase, sequence (P10721 26-976): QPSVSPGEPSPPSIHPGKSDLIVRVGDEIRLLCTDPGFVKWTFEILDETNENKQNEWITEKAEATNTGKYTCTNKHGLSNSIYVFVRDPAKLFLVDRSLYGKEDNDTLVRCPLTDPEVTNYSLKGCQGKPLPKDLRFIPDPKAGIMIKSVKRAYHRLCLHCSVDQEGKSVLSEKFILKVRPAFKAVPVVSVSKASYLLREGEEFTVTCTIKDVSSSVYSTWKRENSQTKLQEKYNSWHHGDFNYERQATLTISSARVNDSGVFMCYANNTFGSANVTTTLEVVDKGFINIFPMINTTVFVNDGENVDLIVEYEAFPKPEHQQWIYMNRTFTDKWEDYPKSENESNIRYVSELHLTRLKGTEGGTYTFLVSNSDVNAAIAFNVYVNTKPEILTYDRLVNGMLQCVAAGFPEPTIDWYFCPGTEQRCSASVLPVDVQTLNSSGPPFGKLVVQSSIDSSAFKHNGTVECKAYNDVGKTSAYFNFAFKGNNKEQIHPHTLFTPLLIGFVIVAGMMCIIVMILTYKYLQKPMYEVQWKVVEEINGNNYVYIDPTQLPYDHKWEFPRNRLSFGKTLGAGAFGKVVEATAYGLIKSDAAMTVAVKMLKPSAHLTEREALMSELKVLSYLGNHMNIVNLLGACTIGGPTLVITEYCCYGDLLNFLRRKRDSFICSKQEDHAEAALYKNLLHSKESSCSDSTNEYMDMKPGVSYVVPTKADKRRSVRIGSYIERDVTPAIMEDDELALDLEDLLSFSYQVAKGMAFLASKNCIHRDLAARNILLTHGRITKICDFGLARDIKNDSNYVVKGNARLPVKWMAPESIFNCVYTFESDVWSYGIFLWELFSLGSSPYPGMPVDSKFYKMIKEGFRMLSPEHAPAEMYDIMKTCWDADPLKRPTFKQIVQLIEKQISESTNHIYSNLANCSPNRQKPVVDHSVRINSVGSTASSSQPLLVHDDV
Procedure, shortened: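 Phosphorylation of 30 nM biotin-(E4Y)10 by c-Kit (0.75 ng per reaction) with 100 µM ATP in HEPES pH 7.5 buffer with Mg2+/Mn2+, 5% DMSO, 1 h at room temperature; 8-point 1:2 compound dilutions. AlphaScreen detection with streptavidin donor and PY20 acceptor beads after EDTA stop. IC50 from signal versus concentration.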

[4] = molecular target: Fms kinase (Homo sapiens, UniProt P07333); test: Fms kinase biochemical activity assay (AlphaScreen, biotin-(E4Y)10 phosphorylation); conditions: 100 μM ATP; read-out: Biochemical Inhibition IC50 Fms
Fms kinase, sequence (P07333 20-972): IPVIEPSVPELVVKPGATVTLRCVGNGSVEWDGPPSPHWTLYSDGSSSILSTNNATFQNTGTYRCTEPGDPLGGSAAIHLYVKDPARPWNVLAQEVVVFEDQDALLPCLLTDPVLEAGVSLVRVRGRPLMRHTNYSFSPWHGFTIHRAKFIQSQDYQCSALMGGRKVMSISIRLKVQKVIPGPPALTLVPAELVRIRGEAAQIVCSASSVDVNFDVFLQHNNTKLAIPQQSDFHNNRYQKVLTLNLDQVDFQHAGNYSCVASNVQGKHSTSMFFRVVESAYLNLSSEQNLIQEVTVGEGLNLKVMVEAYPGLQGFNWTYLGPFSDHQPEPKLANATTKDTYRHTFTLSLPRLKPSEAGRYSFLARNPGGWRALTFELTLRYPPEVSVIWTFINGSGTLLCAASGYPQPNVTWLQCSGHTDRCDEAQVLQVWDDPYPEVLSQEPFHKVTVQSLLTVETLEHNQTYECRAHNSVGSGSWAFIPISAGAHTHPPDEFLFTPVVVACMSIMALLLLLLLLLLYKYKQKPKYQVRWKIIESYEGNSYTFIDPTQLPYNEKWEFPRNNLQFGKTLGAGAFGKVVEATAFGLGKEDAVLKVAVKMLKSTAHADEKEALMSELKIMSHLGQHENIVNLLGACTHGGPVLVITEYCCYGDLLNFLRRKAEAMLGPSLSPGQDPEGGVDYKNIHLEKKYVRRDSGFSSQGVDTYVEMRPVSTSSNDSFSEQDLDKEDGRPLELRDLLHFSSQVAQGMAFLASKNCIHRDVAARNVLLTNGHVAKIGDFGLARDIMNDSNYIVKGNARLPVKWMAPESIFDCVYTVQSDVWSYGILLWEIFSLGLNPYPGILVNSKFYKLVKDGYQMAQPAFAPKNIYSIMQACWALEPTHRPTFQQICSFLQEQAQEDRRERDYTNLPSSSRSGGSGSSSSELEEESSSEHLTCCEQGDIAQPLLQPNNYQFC
Procedure, shortened: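 Fms kinase (1 ng/well) phosphorylating 30 nM biotin-(E4Y)10 with 100 μM ATP in 25 mM Hepes pH 7.5, MgCl2/MnCl2, 5% DMSO, 20 min at 30 °C. Phosphotyrosine detected by AlphaScreen streptavidin donor and PY20 acceptor beads; IC50 from signal versus compound concentration.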

CYP3A4(BFC), sequence (P08684 whole entry): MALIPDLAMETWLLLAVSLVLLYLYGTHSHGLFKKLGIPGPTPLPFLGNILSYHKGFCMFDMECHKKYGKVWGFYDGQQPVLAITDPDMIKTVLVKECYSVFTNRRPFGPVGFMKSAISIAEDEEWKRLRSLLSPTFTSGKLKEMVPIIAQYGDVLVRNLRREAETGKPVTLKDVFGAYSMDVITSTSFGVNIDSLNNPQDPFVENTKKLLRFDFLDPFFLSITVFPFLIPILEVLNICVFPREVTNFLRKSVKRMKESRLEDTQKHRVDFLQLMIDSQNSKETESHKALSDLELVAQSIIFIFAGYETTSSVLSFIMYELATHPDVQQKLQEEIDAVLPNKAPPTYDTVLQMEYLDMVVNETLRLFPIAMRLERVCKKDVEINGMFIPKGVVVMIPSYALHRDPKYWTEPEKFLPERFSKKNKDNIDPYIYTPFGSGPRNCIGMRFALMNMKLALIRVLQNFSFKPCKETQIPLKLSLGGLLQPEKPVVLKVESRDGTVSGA

pIC50 [1]	pIC50 [2]	pIC50 [3]	pIC50 [4]	SMILES
< 5.00	< 5.00	> 6.00	> 7.00	COc1ccc(Nc2ccc(C(=O)c3c[nH]c4ncnc(NC5CCCCC5)c34)c(F)n2)cn1 [Compound P-4082, [4-(cyclohexylamino)-7H-pyrrolo[2,3-d]pyrimidin-5-yl]-[2-fluoro-6-[(6-methoxy-3-pyridyl)amino]-3-pyridyl]methanone]
< 5.00	5.00 to 5.30	> 6.00	> 7.00	CC(C)Nc1ncnc2[nH]cc(C(=O)c3ccc(NC4CCCCC4)nc3F)c12 [Compound P-4101, [6-(cyclohexylamino)-2-fluoro-3-pyridyl]-[4-(isopropylamino)-7H-pyrrolo[2,3-d]pyrimidin-5-yl]methanone]
< 5.00	< 5.00	> 7.00	> 7.00	O=C(c1ccc(Nc2ccc(C(F)(F)F)nc2)nc1F)c1c[nH]c2ncnc(NC3CC3)c12 [Compound P-4091, [4-(cyclopropylamino)-7H-pyrrolo[2,3-d]pyrimidin-5-yl]-[2-fluoro-6-[[6-(trifluoromethyl)-3-pyridyl]amino]-3-pyridyl]methanone]
< 5.00	< 5.00	> 6.00	> 7.00	O=C(c1ccc(NC2CCC(F)(F)CC2)nc1)c1c[nH]c2ncnc(NC3CC3)c12 [Compound P-4088, [4-(cyclopropylamino)-7H-pyrrolo[2,3-d]pyrimidin-5-yl]-[6-[(4,4-difluorocyclohexyl)amino]-3-pyridyl]methanone]
< 5.00	< 5.00	> 7.00	> 7.00	CCc1ccc(Nc2ccc(C(=O)c3c[nH]c4ncnc(NC5CC5)c34)c(F)n2)cn1 [Compound P-4125, [4-(cyclopropylamino)-7H-pyrrolo[2,3-d]pyrimidin-5-yl]-[6-[(6-ethyl-3-pyridyl)amino]-2-fluoro-3-pyridyl]methanone]
< 5.00	< 5.00	> 7.00	> 8.00	CCc1ccc(Nc2ccc(C(=O)c3c[nH]c4ncnc(NC5CCC5)c34)c(F)n2)cn1 [Compound P-4095, [4-(cyclobutylamino)-7H-pyrrolo[2,3-d]pyrimidin-5-yl]-[6-[(6-ethyl-3-pyridyl)amino]-2-fluoro-3-pyridyl]methanone]
< 5.00	4.70 to 5.30	> 7.00	> 7.00	COc1ccc(Nc2ccc(C(=O)c3c[nH]c4ncnc(NC5CCC(F)(F)CC5)c34)c(F)n2)cn1 [Compound P-4056, [4-[(4,4-difluorocyclohexyl)amino]-7H-pyrrolo[2,3-d]pyrimidin-5-yl]-[2-fluoro-6-[(6-methoxy-3-pyridyl)amino]-3-pyridyl]methanone]
< 5.00	< 5.00	> 7.00	> 8.00	O=C(c1ccc(Nc2ccc(C3CC3)nc2)nc1F)c1c[nH]c2ncnc(NC3CC3)c12 [Compound P-4093, [4-(cyclopropylamino)-7H-pyrrolo[2,3-d]pyrimidin-5-yl]-[6-[(6-cyclopropyl-3-pyridyl)amino]-2-fluoro-3-pyridyl]methanone]
< 5.00	< 5.00	> 7.00	> 8.00	O=C(c1ccc(NC2CCC(F)(F)CC2)nc1F)c1c[nH]c2ncnc(NC3CC3)c12 [Compound P-4062, [4-(cyclopropylamino)-7H-pyrrolo[2,3-d]pyrimidin-5-yl]-[6-[(4,4-difluorocyclohexyl)amino]-2-fluoro-3-pyridyl]methanone]

Continued, compound first:

SMILES	pIC50 [1]	pIC50 [2]	pIC50 [3]	pIC50 [4]
COCCCNc1ncnc2[nH]cc(C(=O)c3ccc(Nc4ccc(OC)nc4)nc3F)c12 [Compound P-4079, [2-fluoro-6-[(6-methoxy-3-pyridyl)amino]-3-pyridyl]-[4-(3-methoxypropylamino)-7H-pyrrolo[2,3-d]pyrimidin-5-yl]methanone]	< 5.00	5.00 to 5.30	> 7.00	> 8.00
Cc1ccc(Nc2ccc(C(=O)c3c[nH]c4ncnc(NCC(F)(F)F)c34)c(F)n2)cn1 [Compound P-4112, [2-fluoro-6-[(6-methyl-3-pyridyl)amino]-3-pyridyl]-[4-(2,2,2-trifluoroethylamino)-7H-pyrrolo[2,3-d]pyrimidin-5-yl]methanone]	< 5.00	> 5.30	> 6.00	> 7.00
CCc1ccc(Nc2ccc(C(=O)c3c[nH]c4ncnc(NC(C)C)c34)c(F)n2)cn1 [Compound P-4117, [6-[(6-ethyl-3-pyridyl)amino]-2-fluoro-3-pyridyl]-[4-(isopropylamino)-7H-pyrrolo[2,3-d]pyrimidin-5-yl]methanone]	< 5.00	< 5.00	> 7.00	> 8.00
Cc1ccc(Nc2ccc(C(=O)c3c[nH]c4ncnc(NCC5CC5)c34)c(F)n2)cn1 [Compound P-4113, [4-(cyclopropylmethylamino)-7H-pyrrolo[2,3-d]pyrimidin-5-yl]-[2-fluoro-6-[(6-methyl-3-pyridyl)amino]-3-pyridyl]methanone]	< 5.00	< 5.00	> 7.00	> 8.00
COc1ccc(Nc2ccc(C(=O)c3c[nH]c4ncnc(NC(C)(C)C)c34)c(F)n2)cn1 [Compound P-4055, [4-(tert-butylamino)-7H-pyrrolo[2,3-d]pyrimidin-5-yl]-[2-fluoro-6-[(6-methoxy-3-pyridyl)amino]-3-pyridyl]methanone]	< 5.00	> 5.00	> 6.00	> 7.00
CCNc1ncnc2[nH]cc(C(=O)c3ccc(Nc4ccc(C5CC5)nc4)nc3F)c12 [Compound P-4060, [6-[(6-cyclopropyl-3-pyridyl)amino]-2-fluoro-3-pyridyl]-[4-(ethylamino)-7H-pyrrolo[2,3-d]pyrimidin-5-yl]methanone]	< 5.00	< 5.00	> 7.00	> 8.00
CCc1ccc(Nc2ccc(C(=O)c3c[nH]c4ncnc(NCC(C)C)c34)c(F)n2)cn1 [Compound P-4121, [6-[(6-ethyl-3-pyridyl)amino]-2-fluoro-3-pyridyl]-[4-(isobutylamino)-7H-pyrrolo[2,3-d]pyrimidin-5-yl]methanone]	< 5.00	5.00 to 5.30	> 8.00	> 7.00
CNc1ncnc2[nH]cc(C(=O)c3ccc(Nc4cncc(OC)c4)nc3F)c12 [Compound P-4108, [2-fluoro-6-[(5-methoxy-3-pyridyl)amino]-3-pyridyl]-[4-(methylamino)-7H-pyrrolo[2,3-d]pyrimidin-5-yl]methanone]	< 5.00	> 5.30	> 6.00	> 7.00
Fc1ccc(Nc2ncc(Cc3c[nH]c4ncc(Cl)cc34)cn2)cc1 [Compound P-3012, [5-(5-Chloro-1H-pyrrolo[2,3-b]pyridin-3-ylmethyl)-pyrimidin-2-yl]-(4-fluoro-phenyl)-amine]	< 5.00	< 5.00	> 8.00	> 8.00
CCc1ccc(Nc2ccc(C(=O)c3c[nH]c4ncnc(NCCCOC)c34)c(F)n2)cn1 [Compound P-4098, [6-[(6-ethyl-3-pyridyl)amino]-2-fluoro-3-pyridyl]-[4-(3-methoxypropylamino)-7H-pyrrolo[2,3-d]pyrimidin-5-yl]methanone]	< 5.00	> 5.30	> 7.00	> 8.00
COc1cncc(Nc2ccc(C(=O)c3c[nH]c4ncnc(NC(C)C)c34)c(F)n2)c1 [Compound P-4106, [2-fluoro-6-[(5-methoxy-3-pyridyl)amino]-3-pyridyl]-[4-(isopropylamino)-7H-pyrrolo[2,3-d]pyrimidin-5-yl]methanone]	< 5.00	> 5.30	> 6.00	> 7.00
CCCNc1ncnc2[nH]cc(C(=O)c3ccc(Nc4ccc(CC)nc4)nc3F)c12 [Compound P-4122, [6-[(6-ethyl-3-pyridyl)amino]-2-fluoro-3-pyridyl]-[4-(propylamino)-7H-pyrrolo[2,3-d]pyrimidin-5-yl]methanone]	< 5.00	< 5.00	> 8.00	> 8.00
CCc1ccc(Nc2ccc(C(=O)c3c[nH]c4ncnc(N[C@@H](C)c5ccc(F)cc5)c34)c(F)n2)cn1 [Compound P-4097, [6-[(6-ethyl-3-pyridyl)amino]-2-fluoro-3-pyridyl]-[4-[[(1S)-1-(4-fluorophenyl)ethyl]amino]-7H-pyrrolo[2,3-d]pyrimidin-5-yl]methanone]	< 5.00	> 5.30	> 6.00	> 6.00
